These results are taken from US20120165319A1, “INHIBITORS OF INTERLEUKIN-1 BETA CONVERTING ENZYME” (VERTEX PHARMACEUTICALS INCORPORATED, priority 1995, published 2012).

Series [1] deals with IL-1β, human peripheral blood mononuclear cells (PBMC). The series is described as follows: PBMC cell assay: IL-1β assay with human PBMC or enriched adherent mononuclear cells, LPS-stimulated. In kind it is cell-based. The procedure, abridged: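 Buffy-coat human PBMC at 6×10^6 cells/ml, or adherent monocytes enriched by 1 h adherence (2.5−3.0×10^5 cells/well), are given 5–6 compound dilutions bracketing the ICE Ki (final DMSO 0.1%) plus LPS at a final 5 ng/ml. They are incubated 16–18 hr at 37 °C, 5% CO2, and supernatant mature IL-1β is measured by ELISA, with duplicate cultures and duplicate ELISAs.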

The target in a further series is T1, ICE (Homo sapiens, UniProt P29466).
T1 sequence (P29466 120-297 limits assumed): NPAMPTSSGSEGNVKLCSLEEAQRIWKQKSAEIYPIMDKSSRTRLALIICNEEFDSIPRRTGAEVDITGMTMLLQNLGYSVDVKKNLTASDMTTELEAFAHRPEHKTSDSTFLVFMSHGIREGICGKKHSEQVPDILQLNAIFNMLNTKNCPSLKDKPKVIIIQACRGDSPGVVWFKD
T1 sequence (P29466 317-404 limits assumed): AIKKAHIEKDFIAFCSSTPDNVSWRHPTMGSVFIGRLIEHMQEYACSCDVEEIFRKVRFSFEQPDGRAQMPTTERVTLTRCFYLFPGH
The series is described as follows: Enzyme assay with UV-visible substrate (visible ICE assay, Succinyl-Tyr-Val-Ala-Asp-pNitroanilide). In kind it is biochemical. The procedure, abridged:
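Read-out is the rate of pNA chromophore release (mOD/min, linear fit) monitored at 405-603 nm over 20 min at 37° C. Substrate was succinyl-Tyr-Val-Ala-Asp-pNitroanilide, added after a 15 min room-temperature preincubation of ICE with inhibitor.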

A short description of series [2]: Pharmacokinetic studies in the mouse (i.v. clearance, plasma levels). The conditions noted are these: CD-1, plasma, iv, mouse, 25 mg/kg. Format: in vivo. On the procedure:
Pharmacokinetic Studies in the Mouse
Sample Preparation and Dosing
Compounds were dissolved in sterile TRIS solution (0.02M or 0.05M) at a concentration of 2.5 mg/ml. Where necessary to ensure a complete solution, the sample was first dissolved in a minimum of dimethylacetamide (maximum of 5% of total solution volume) then diluted with the TRIS solution.
The drug solution was administered to CD-1 mice (Charles River Laboratories—26-31 g) via the tail vein at a dose volume of 10 ml/kg giving a drug dose of 25 mg/kg.
Mice were dosed in groups of 5 for each timepoint (generally from 2 minutes to 2 hours) then at the appropriate time the animals were anaesthetised with halothane and the blood collected into individual heparinized tubes by jugular severance. The blood samples were cooled to 0° C. then the plasma separated and stored at −20° C. until assayed.
Drug concentration in the plasma samples were determined by HPLC analysis with UV or MS (ESP) detection. Reverse phase chromatography was employed using a variety of bonded phases from C1 to C18 with eluents composed of aqueous buffer/acetonitrile mixtures run under isocratic conditions.
Quantitation was by external standard methods with calibration curves constructed by spiking plasma with drug solutions to give concentrations in the range of 0.5 to 50 μg/ml.
Prior to analysis the plasma samples were deproteinated by the addition of acetonitrile, methanol, trichloroacetic acid or perchloric acid followed by centrifugation at 10,000 g for 10 minutes. Sample volumes of 20 μl to 50 μl were injected for analysis.
The drug was dissolved in sterile 0.02M Tris to give a 2.5 mg/ml solution which was administered to […] of 5 male CD-1 mice via the tail vein at a dose of 25 mg/kg. At each of the following timepoints: 2, 5, 10, 15, 20, 30, 45, 60, 90 and 120 minutes a group of animals was anaesthetised and the blood collected into heparinized tubes. After separation the plasma was stored at −20° C. until assayed.
Aliquots of plasma (150 μl) were treated with 5% perchloric acid (5 μl) then mixed by vortexing and allowed to stand for 90 minutes prior to centrifugation. The resulting supernatant was separated and 20 μl was injected for HPLC analysis.
Aliquots of plasma (100 μl) were diluted with acetonitrile (100 μl) then mixed by vortexing for 20 seconds before centrifugation for 10 minutes. The resulting supernatant was separated and 20 μl was injected for HPLC analysis.

A further series has as its system IL-1β, human whole blood. The series is described as follows: Whole blood assay for IL-1β production. Format: cell-based. The conditions noted are these: * = values obtained upon reassay, read-out: Whole human blood IC50. Summed up: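 Human whole blood collected on Na2EDTA was treated with serially diluted compound in saline and then stimulated with LPS at 5.0 ng/ml final, for 16-18 h at 30 °C, in duplicate or triplicate. Plasma IL-1β was measured by ELISA at 1:200 dilution.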

Series [3] is described as follows: In vivo rat clearance assay. The conditions noted are these: plasma, iv, 10-20 mg/kg. How it is done: In Vivo Rat Clearance Assay
Cannulations of the jugular and carotid vessels of rats under anesthesia were performed one day prior to the pharmacokinetic study. M. J. Free, R. A. Jaffee; ‘Cannulation techniques for the collection blood and other bodily fluids’; in: Animal Models; p. 480-495; N. J. Alexander, Ed.; Academic Press; (1978). Drug (10 mg/mL) was administered via the jugular vein in a vehicle usually consisting of: propylene glycol/saline, containing 100 mM sodium bicarbonate in a 1:1 ratio. Animals were dosed with 10-20 mg drug/kg and blood samples were drawn at 0, 2, 5, 7, 10, 15, 20, 30, 60, and 90 minutes from an indwelling carotid catheter. The blood was centrifuged to plasma and stored at −20° C. until analysis. Pharmacokinetic analysis of data was performed by non-linear regression using standard software such as RStrip (MicroMath Software, UT) and/or Pcnonlin (SCI Software, NC) to obtain clearance values.
Rat plasma was extracted with an equal volume of acetonitrile (containing 0.1% TFA). Samples were then centrifuged at approximately 1,000×g and the supernatant analyzed by gradient HPLC. A typical assay procedure is described below.
A standard curve was run at 20, 10, 5, 2 and 1 μg/mL concentrations.

The test system of series [4] is IL-1β production, LPS-challenged mice. The experiment in a line: In vivo acute assay for efficacy as anti-inflammatory agent: LPS-induced IL-1β production in mice. Set-up: species or system mouse. The conditions noted are these: for inhibition at 50 mg/kg: Mus musculus, po, LPS challenged mice, compound PO, read-out: percent inhibition of IL-1β production. The procedure, abridged: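 CD1 mice (n=6) were challenged with LPS 20 mg/kg IP and given compound IP in olive oil:DMSO:ethanol (90:5:5) 1 h after LPS, or at the time of challenge for some analogs. Blood was taken 7 h after LPS and serum IL-1β was measured by ELISA. Oral gavage at 50 mg/kg was also tested.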

The mark [5] stands for this setting: Homo sapiens, PBMC, * = values obtained upon reassay.
Setting [6] is: 0 h, administered 0 h relative to time of LPS challenge.
Setting [7] is: 2 h, administered −2 h relative to time of LPS challenge.

Each structure is given as a SMILES string. Where two headings read alike, the source gives them in different places.

The compound `O=C[C@H](CC(=O)O)NC(=O)CN1C(=O)[C@@H](NC(=O)c2ccccc2)CN(C(=O)Cc2ccccc2)c2ccccc21` [Compound 605b, (3S)-3-[(3S)-2-Oxo-3-benzoylamino-5-phenylacetyl-2,3,4,5-tetrahydro-1H-1,5-benzodiazepin-1-acetylamino]-4-oxo-butyric acid] returned an IC50 in series [1] (setting [5]) of 10000 nM. The compound also gave a Ki on ICE (Table 5) of 45 nM. This compound also displayed a clearance in series [2] of 97 mL/min/kg.
Consider `Nc1ccc(C(=O)N[C@H]2CCC(=O)N3CCC[C@@H](C(=O)N[C@H](C=O)CC(=O)O)N3C2=O)cc1Cl` [Compound 481], for which affinity at ICE (Table 5) was put at a Ki of 1.2 nM. Further, the IC50 in the series on IL-1β, human whole blood worked out at 500 nM; in the series on IL-1β, human whole blood (Homo sapiens), 600 nM. Further, the clearance in series [3] is 34 mL/min/kg. Besides, the figures for the inhibition at 50 mg/kg in series [4] (setting [6]) and in series [4] (setting [7]) were 0% and 27%, respectively.
`O=C[C@H](CC(=O)O)NC(=O)[C@@H]1CCCN2C(=O)CCN(NS(=O)(=O)c3ccc4ccccc4c3)C(=O)N12` [Compound 265a, [3S(4 S)]3-[6,10-Dioxo-7-(2-naphthalenesulfonyl)amino-1,2,3,4,7,8,9,10-octahydro-6H-pyridazino[1,2-a][1,2,4]triazepine-4-carboxamido]-4-oxobutanoic acid]: the melting point was 126 to 130 °C (dec.). This compound also came in with an IC50 in series [1] (Homo sapiens, PBMC, Table 17) of 25000 nM. At ICE (Table 17), the affinity corresponds to a Ki of 2600 nM.
As for `CC(=O)Nc1ccc(C(=O)N[C@H]2CCC(=O)N3CCC[C@@H](C(=O)N[C@H](C=O)CC(=O)O)N3C2=O)cc1` [Compound 418], at ICE (Table 5), the affinity corresponds to a Ki of 2.2 nM. Also, the clearance in series [2] stood at 13 mL/min/kg; in series [3], 5.9 mL/min/kg. In addition, the inhibition at 50 mg/kg was determined as 52% in series [4] (setting [6]); 64% in series [4] (1 h, administered +1 h relative to time of LPS challenge); 25% in series [4] (setting [7]).
On to `O=C(O)CC(NC(=O)Cn1c(Cc2ccccc2)ccc(NC(=O)CCc2ccccc2)c1=O)C(=O)COC(=O)c1c(Cl)cccc1Cl` (centres unmarked) [Compound 57b, N-2-(6-Benzyl-1,2-dihydro-2-oxo-3-(3-phenylpropionyl)amino-1-pyridyl)acetyl-3-amino-5-(2,6-dichloro-benzoyloxy)-4-oxo-pentanoic acid], for which the melting point is 116 to 120 °C (dec.).
For `O=C(O)C[C@H](NC(=O)[C@@H]1CCCN2C(=O)CC[C@H](NC(=O)c3ccccc3)C(=O)N12)C(=O)CSc1nccs1` [Compound 510a, [3S(1S,9S)]3-(9-Benzoylamino-6,10-dioxo-1,2,3,4,7,8,9,10-octahydro-6H-pyridazino[1,2-a][1,2]diazepine-1-carboxamido)-5-(2-mercaptothiazole)-4-oxopentanoic acid], half-maximal inhibition in series [1] (Homo sapiens, PBMC, Table 17) (IC50) required 200 nM. For the same compound, the Ki on ICE (Table 17) was found to be 65 nM. In addition, in series [2] (Table 17), the clearance came to 267 mL/min/kg.
In the case of `CC(=O)N1C[C@H](NC(=O)c2ccccc2)C(=O)N(CC(=O)N[C@H](C=O)CC(=O)O)c2ccccc21` [Compound 605d, (3S)-3-[(3S)-2-Oxo-3-benzoylamino-5-acetyl-2,3,4,5-tetrahydro-1H-1,5-benzodiazepin-1-acetylamino]-4-oxo-butyric acid], 5100 nM corresponded to half-maximal inhibition in series [1] (setting [5]) (IC50). Besides, the affinity at ICE (Table 5), expressed as Ki, was 95 nM. The same compound registered a clearance in series [2] of 33 mL/min/kg.
As for `O=C[C@H](CC(=O)O)NC(=O)[C@@H]1CCCN2C(=O)CC[C@H](NC(=O)C(=O)c3ccccc3)C(=O)N12` [Compound 2002, [3S(1S,9S)]3-(9-Benzoylformylamino-6,10-dioxo-1,2,3,4,7,8,9,10-octahydro-6H-pyridazino[1,2-a][1,2]-diazepine-1-carboxamido)-4-oxobutanoic acid], the IC50 in series [1] (* = values obtained upon reassay) was found to be 860 nM; in series [1] (setting [5]), 810 nM. On ICE (Table 5), the affinity corresponds to a Ki of 4 nM. The clearance in series [3] is 32 mL/min/kg. Further, the “IP % Inhibition” value in series [4] (% inhibition of IL-β production, LPS-challenged mice, IP, 50 mg/kg (Table 3)) is recorded as 78%. The results for the inhibition at 50 mg/kg in series [4] (setting [6]) and in series [4] (setting [7]) were 87% and 5%, respectively.
`CS(=O)(=O)N[C@H]1CCC(=O)N2CCC[C@@H](C(=O)N[C@@H](CC(=O)O)C(=O)c3nc4cc(Cl)cc(Cl)c4o3)N2C1=O` [Compound 223b, [3S(1S,9S)]-4-(5,7-Dichlorobenzoxazol-2-yl)-3-(6,10-dioxo-9-methylsulphonylamino-1,2,3,4,7,8,9,10-octahydro-6H-pyridazino[1,2-a][1,2]diazepine-1-carboxamido)-4-oxobutanoic acid] returned an IC50 in series [1] (setting [5]) of 5000 nM. Besides, the Ki at ICE (Table 5) came out at 99 nM. Moreover, the clearance in series [2] was greater than 100 mL/min/kg.
The like results for `COC(=O)N1C[C@H](NC(=O)c2ccccc2)C(=O)N(CC(=O)N[C@H](C=O)CC(=O)O)c2ccccc21` [Compound 605j, (3S)-3-[(3S)-2-Oxo-3-benzoylamino-5-methoxycarbonyl-2,3,4,5-tetrahydro-1H-1,5-benzodiazepin-1-acetylamino]-4-oxo-butyric acid] were, in that order, 8750 nM, 110 nM and 71 mL/min/kg.
The like results for `O=C[C@H](CC(=O)O)NC(=O)CN1C(=O)[C@@H](NC(=O)c2ccccc2)CN(C(=O)c2ccccc2)c2ccccc21` [Compound 605c, (3S)-3-[(3S)-2-Oxo-3-benzoylamino-5-benzoyl-2,3,4,5-tetrahydro-1H-1,5-benzodiazepin-1-acetylamino]-4-oxo-butyric acid] were, in that order, 4500 nM, 615 nM and 37 mL/min/kg.
